From PMC5218480 (PLoS ONE, 2017)

Tested on: MV-4-11 cells
Experiment: Gene expression microarray analysis (Affymetrix PrimeView) and GSEA
Format: cell-based, human
Parameters: RFU PODN (11730768_x_at) / Fold change /veh PODN (11730768_x_at) / RFU LINC00158 (11744669_a_at) / Fold change /veh LINC00158 (11744669_a_at) / RFU DUSP10 (11751237_a_at) / Fold change /veh DUSP10 (11751237_a_at) / RFU ID3 (11757404_x_at) / Fold change /veh ID3 (11757404_x_at) / RFU PLEKHG5 (11737974_s_at) / Fold change /veh PLEKHG5 (11737974_s_at) / RFU LRRC4B (11730491_at) / Fold change /veh LRRC4B (11730491_at) / RFU GIMAP4 (11747438_a_at) / Fold change /veh GIMAP4 (11747438_a_at) / RFU KRT8 (11758183_x_at) / Fold change /veh KRT8 (11758183_x_at) / RFU CNN1 (11734310_a_at) / Fold change /veh CNN1 (11734310_a_at) / RFU VPS37D (11726825_at) / Fold change /veh VPS37D (11726825_at) / RFU C10orf10 (11716522_x_at) / Fold change /veh C10orf10 (11716522_x_at) / RFU KIR2DL2 /// KIR2DL4 /// KIR2DL5A /// KIR2DL5B /// KIR2DS1 /// KIR2DS2 /// KIR2DS3 /// KIR2DS4 /// KIR3DL3 /// KIR3DL3 /// KIR3DS1 (11738374_at) / Fold change /veh KIR2DL2 /// KIR2DL4 /// KIR2DL5A /// KIR2DL5B /// KIR2DS1 /// KIR2DS2 /// KIR2DS3 /// KIR2DS4 /// KIR3DL3 /// KIR3DL3 /// KIR3DS1 (11738374_at) / RFU C1QL1 (11718748_at) / Fold change /veh C1QL1 (11718748_at) / RFU TMPRSS4 (11747572_a_at) / Fold change /veh TMPRSS4 (11747572_a_at) / RFU HAMP (11756126_x_at) / Fold change /veh HAMP (11756126_x_at) / RFU RNFT2 (11725882_a_at) / Fold change /veh RNFT2 (11725882_a_at) / RFU NR4A2 (11747474_a_at) / Fold change /veh NR4A2 (11747474_a_at) / RFU ABCC12 (11746883_a_at) / Fold change /veh ABCC12 (11746883_a_at) / RFU TMEM136 (11760407_x_at) / Fold change /veh TMEM136 (11760407_x_at) / RFU CLDN22 /// WWC2 (11732394_at) / Fold change /veh CLDN22 /// WWC2 (11732394_at) / RFU HLA-DPB1 (11760878_x_at) / Fold change /veh HLA-DPB1 (11760878_x_at) / RFU SPINT1 (11716480_a_at) / Fold change /veh SPINT1 (11716480_a_at) / RFU GAP43 (11754022_s_at) / Fold change /veh GAP43 (11754022_s_at) / RFU A4GNT (11735810_at) / Fold change /veh A4GNT (11735810_at) / RFU PRB3 (11715151_x_at) / Fold change /veh PRB3 (11715151_x_at) / RFU TUBB4B (11761932_at) / Fold change /veh TUBB4B (11761932_at) / RFU CAPN14 (11732068_a_at) / Fold change /veh CAPN14 (11732068_a_at) / RFU TMCC2 (11721928_a_at) / Fold change /veh TMCC2 (11721928_a_at) / RFU IRGQ (11745062_a_at) / Fold change /veh IRGQ (11745062_a_at) / RFU FAM174B (11720279_a_at) / Fold change /veh FAM174B (11720279_a_at) / RFU TMPRSS4 (11748680_a_at) / Fold change /veh TMPRSS4 (11748680_a_at) / RFU FAM212B (11763350_a_at) / Fold change /veh FAM212B (11763350_a_at) / RFU PLEKHG5 (11743358_a_at) / Fold change /veh PLEKHG5 (11743358_a_at) / RFU ZSCAN30 (11745921_a_at) / Fold change /veh ZSCAN30 (11745921_a_at) / RFU CMKLR1 (11741424_a_at) / Fold change /veh CMKLR1 (11741424_a_at) / RFU LOC101060620 /// MAPK8IP1 (11723275_at) / Fold change /veh LOC101060620 /// MAPK8IP1 (11723275_at) / RFU SPTSSB (11747773_x_at) / Fold change /veh SPTSSB (11747773_x_at) / RFU PRSS12 (11739890_at) / Fold change /veh PRSS12 (11739890_at) / RFU BIN1 (11741810_x_at) / Fold change /veh BIN1 (11741810_x_at) / RFU WNT11 (11732464_a_at) / Fold change /veh WNT11 (11732464_a_at) / RFU C10orf10 (11716521_a_at) / Fold change /veh C10orf10 (11716521_a_at) / RFU C5orf56 (11738089_at) / Fold change /veh C5orf56 (11738089_at) / RFU CYB561 (11721691_x_at) / Fold change /veh CYB561 (11721691_x_at) / RFU ANKRD19P (11752326_a_at) / Fold change /veh ANKRD19P (11752326_a_at) / RFU OR2T12 /// OR2T33 /// OR2T8 (11738714_s_at) / Fold change /veh OR2T12 /// OR2T33 /// OR2T8 (11738714_s_at) / RFU VCAN (11748164_a_at) / Fold change /veh VCAN (11748164_a_at) / RFU JSRP1 (11732532_at) / Fold change /veh JSRP1 (11732532_at) / RFU KRTAP10-11 (11738290_x_at) / Fold change /veh KRTAP10-11 (11738290_x_at) / RFU MYO3A (11730013_a_at) / Fold change /veh MYO3A (11730013_a_at) / RFU EBF3 (11725865_a_at) / Fold change /veh EBF3 (11725865_a_at) / RFU CAMK2N1 (11719241_x_at) / Fold change /veh CAMK2N1 (11719241_x_at) / RFU C5orf56 (11738088_a_at) / Fold change /veh C5orf56 (11738088_a_at) / RFU OLFML3 (11715873_a_at) / Fold change /veh OLFML3 (11715873_a_at) / RFU LOC100653217 /// NTM (11731650_a_at) / Fold change /veh LOC100653217 /// NTM (11731650_a_at) / RFU MAPK11 (11762145_a_at) / Fold change /veh MAPK11 (11762145_a_at) / RFU FIZ1 (11724087_x_at) / Fold change /veh FIZ1 (11724087_x_at) / RFU OASL (11726364_x_at) / Fold change /veh OASL (11726364_x_at) / RFU SOX15 (11748057_x_at) / Fold change /veh SOX15 (11748057_x_at) / RFU CD79A (11719716_a_at) / Fold change /veh CD79A (11719716_a_at) / RFU HIST1H1D (11736915_at) / Fold change /veh HIST1H1D (11736915_at) / RFU CASKIN2 (11723855_a_at) / Fold change /veh CASKIN2 (11723855_a_at) / RFU LOC730098 (11760151_x_at) / Fold change /veh LOC730098 (11760151_x_at) / RFU OR4N2 (11742367_at) / Fold change /veh OR4N2 (11742367_at) / RFU PRRT2 (11749266_a_at) / Fold change /veh PRRT2 (11749266_a_at) / RFU SNX32 (11753110_a_at) / Fold change /veh SNX32 (11753110_a_at) / RFU CDHR5 (11726645_a_at) / Fold change /veh CDHR5 (11726645_a_at) / RFU RCAN1 (11760418_a_at) / Fold change /veh RCAN1 (11760418_a_at) / RFU FAM167A (11723789_a_at) / Fold change /veh FAM167A (11723789_a_at) / RFU FAM26E (11764081_at) / Fold change /veh FAM26E (11764081_at) / RFU ISYNA1 (11749810_s_at) / Fold change /veh ISYNA1 (11749810_s_at) / RFU ACY1 (11761880_at) / Fold change /veh ACY1 (11761880_at) / RFU 11764098_at / Fold change /veh 11764098_at / RFU SAMD14 (11745864_x_at) / Fold change /veh SAMD14 (11745864_x_at) / RFU NPB (11741838_a_at) / Fold change /veh NPB (11741838_a_at) / RFU TMPRSS6 (11731388_a_at) / Fold change /veh TMPRSS6 (11731388_a_at) / RFU KRTAP10-2 (11738614_at) / Fold change /veh KRTAP10-2 (11738614_at) / RFU ARHGAP8 /// PRR5-ARHGAP8 (11727945_x_at) / Fold change /veh ARHGAP8 /// PRR5-ARHGAP8 (11727945_x_at) / RFU KRTAP5-7 /// NADSYN1 (11734609_at) / Fold change /veh KRTAP5-7 /// NADSYN1 (11734609_at) / RFU RASL12 (11751679_a_at) / Fold change /veh RASL12 (11751679_a_at) / RFU CDKN2B (11736163_a_at) / Fold change /veh CDKN2B (11736163_a_at) / RFU PRF1 (11729649_at) / Fold change /veh PRF1 (11729649_at) / RFU, ZNF638 /// ZNF638-IT1 / Fold change vs veh, ZNF638 /// ZNF638-IT1 / RFU, PANK3 / Fold change vs veh, PANK3 / RFU, SH3YL1 / Fold change vs veh, SH3YL1 / RFU, ZEB2 / Fold change vs veh, ZEB2 / RFU, NRIP1 / Fold change vs veh, NRIP1 / RFU, PTTG1IP / Fold change vs veh, PTTG1IP / RFU, CAPN2 / Fold change vs veh, CAPN2 / RFU, MED14 / Fold change vs veh, MED14 / RFU, SNORA58 / Fold change vs veh, SNORA58 / RFU, C1orf63 / Fold change vs veh, C1orf63 / RFU, LRRFIP1 / Fold change vs veh, LRRFIP1 / RFU, NDUFAF7 / Fold change vs veh, NDUFAF7 / RFU, SLC12A2 / Fold change vs veh, SLC12A2 / RFU, IBTK / Fold change vs veh, IBTK / RFU, ESF1 / Fold change vs veh, ESF1 / Fold change vs veh, TMEM50B / RFU, TAOK1 / Fold change vs veh, TAOK1 / RFU, ACBD3 / Fold change vs veh, ACBD3 / RFU, TMA16 / Fold change vs veh, TMA16 / RFU, RWDD3 / Fold change vs veh, RWDD3 / RFU, BCAT1 / Fold change vs veh, BCAT1 / RFU, EDEM3 / Fold change vs veh, EDEM3 / RFU, TMEM33 / Fold change vs veh, TMEM33 / RFU, WDR75 / Fold change vs veh, WDR75 / RFU, AHCTF1 / Fold change vs veh, AHCTF1 / RFU, TFRC / Fold change vs veh, TFRC / RFU, ZDHHC17 / Fold change vs veh, ZDHHC17 / RFU, NOM1 / Fold change vs veh, NOM1 / RFU, ARL8B / Fold change vs veh, ARL8B / RFU, ZBTB11 / Fold change vs veh, ZBTB11 / RFU, TAMM41 / Fold change vs veh, TAMM41 / RFU, KIAA1704 /// LOC100996395 / Fold change vs veh, KIAA1704 /// LOC100996395 / RFU, ING1 / Fold change vs veh, ING1 / RFU, TRMT61B / Fold change vs veh, TRMT61B / RFU, FUBP3 / Fold change vs veh, FUBP3 / RFU, TP53 / Fold change vs veh, TP53 / RFU, TNKS2 / Fold change vs veh, TNKS2 / RFU, ZFP14 / Fold change vs veh, ZFP14 / RFU, ACTR2 / Fold change vs veh, ACTR2 / RFU, PPP3R1 / Fold change vs veh, PPP3R1 / RFU, PIK3R1 / Fold change vs veh, PIK3R1 / RFU, HNRNPA1 / Fold change vs veh, HNRNPA1 / RFU, RNF170 / Fold change vs veh, RNF170 / RFU, ZNF28 / Fold change vs veh, ZNF28 / RFU, RNGTT / Fold change vs veh, RNGTT / RFU, OGT / Fold change vs veh, OGT / RFU, BRD1 / Fold change vs veh, BRD1 / RFU, MARS / Fold change vs veh, MARS / RFU, ZNF655 / Fold change vs veh, ZNF655 / RFU, FAHD1 / Fold change vs veh, FAHD1 / RFU, BDP1 / Fold change vs veh, BDP1 / RFU, LRRCC1 / Fold change vs veh, LRRCC1 / RFU, ARID1A / Fold change vs veh, ARID1A / RFU, ZNF146 / Fold change vs veh, ZNF146 / RFU, ZNF330 / Fold change vs veh, ZNF330 / RFU, GPN3 / Fold change vs veh, GPN3 / RFU, C9orf123 / Fold change vs veh, C9orf123 / RFU, N4BP2L2 / Fold change vs veh, N4BP2L2 / RFU, ARFIP1 / Fold change vs veh, ARFIP1 / RFU, FAM179B / Fold change vs veh, FAM179B / RFU, BCL10 / Fold change vs veh, BCL10 / RFU, UHRF1BP1L / Fold change vs veh, UHRF1BP1L / RFU, BET1 / Fold change vs veh, BET1 / RFU, CNOT2 / Fold change vs veh, CNOT2 / RFU, ZNF268 / Fold change vs veh, ZNF268 / Fold change vs veh, ZNF507 / RFU, DGCR2 / Fold change vs veh, DGCR2 / RFU, WDSUB1 / Fold change vs veh, WDSUB1 / Fold change vs veh, HSP90B1 /// MIR3652 / RFU, ADSS / Fold change vs veh, ADSS / RFU, GK / Fold change vs veh, GK / RFU, ZNF148 / Fold change vs veh, ZNF148 / RFU, TAF9 / Fold change vs veh, TAF9 / RFU, SLC1A5 / Fold change vs veh, SLC1A5 / RFU, SLMO2 / Fold change vs veh, SLMO2 / RFU, ABCC4 / Fold change vs veh, ABCC4 / RFU, LOC101060439 /// RAP1B / Fold change vs veh, LOC101060439 /// RAP1B / RFU, RFX7 / Fold change vs veh, RFX7 / RFU, GTPBP10 / Fold change vs veh, GTPBP10 / RFU, CNEP1R1 / Fold change vs veh, CNEP1R1 / RFU, BIVM-ERCC5 /// ERCC5 / Fold change vs veh, BIVM-ERCC5 /// ERCC5 / RFU, ILF3 / Fold change vs veh, ILF3 / RFU 11762660_at / Fold change /veh 11762660_at / RFU VCAN (11757783_s_at) / Fold change /veh VCAN (11757783_s_at) / RFU DDX43 (11728927_at) / Fold change /veh DDX43 (11728927_at) / RFU KRT8 (11758188_x_at) / Fold change /veh KRT8 (11758188_x_at) / RFU NKD1 (11759106_at) / Fold change /veh NKD1 (11759106_at) / RFU SRD5A1 (11742802_a_at) / Fold change /veh SRD5A1 (11742802_a_at) / RFU TPSAB1 /// TPSB2 (11721975_s_at) / Fold change /veh TPSAB1 /// TPSB2 (11721975_s_at) / RFU GSTM3 (11746129_a_at) / Fold change /veh GSTM3 (11746129_a_at) / RFU IL23R (11737362_x_at) / Fold change /veh IL23R (11737362_x_at) / RFU TMEM51 (11727254_a_at) / Fold change /veh TMEM51 (11727254_a_at) / RFU PIWIL2 (11732686_x_at) / Fold change /veh PIWIL2 (11732686_x_at) / RFU ORM1 (11744905_x_at) / Fold change /veh ORM1 (11744905_x_at) / RFU CCDC152 (11743942_at) / Fold change /veh CCDC152 (11743942_at) / RFU ECM1 (11717891_a_at) / Fold change /veh ECM1 (11717891_a_at) / RFU IL23R (11748794_a_at) / Fold change /veh IL23R (11748794_a_at) / RFU TNFAIP8L3 (11732012_x_at) / Fold change /veh TNFAIP8L3 (11732012_x_at) / RFU MBOAT4 (11741988_at) / Fold change /veh MBOAT4 (11741988_at) / RFU 11764193_at / Fold change /veh 11764193_at / RFU TMEM53 (11763286_at) / Fold change /veh TMEM53 (11763286_at) / RFU MAGEB2 (11727129_at) / Fold change /veh MAGEB2 (11727129_at) / RFU TMEM200A (11744735_a_at) / Fold change /veh TMEM200A (11744735_a_at) / RFU CCDC152 (11751479_a_at) / Fold change /veh CCDC152 (11751479_a_at) / RFU FAM211A (11726209_a_at) / Fold change /veh FAM211A (11726209_a_at) / RFU RGS16 (11746705_a_at) / Fold change /veh RGS16 (11746705_a_at) / RFU VCAN (11755009_s_at) / Fold change /veh VCAN (11755009_s_at) / RFU RHOB (11743442_s_at) / Fold change /veh RHOB (11743442_s_at) / RFU RGS16 (11720943_a_at) / Fold change /veh RGS16 (11720943_a_at) / RFU RGS16 (11720944_at) / Fold change /veh RGS16 (11720944_at) / RFU, VPS4B / Fold change vs veh, VPS4B / RFU, CREB1 / Fold change vs veh, CREB1 / RFU, DNAJC13 / Fold change vs veh, DNAJC13 / RFU, GNAQ / Fold change vs veh, GNAQ / RFU, CDK5R1 / Fold change vs veh, CDK5R1 / RFU, ZRANB3 / Fold change vs veh, ZRANB3 / RFU, CUL4A / Fold change vs veh, CUL4A / RFU, CCNY / Fold change vs veh, CCNY / RFU, UFL1 / Fold change vs veh, UFL1 / RFU, COG3 / Fold change vs veh, COG3 / RFU, DIAPH2 / Fold change vs veh, DIAPH2 / RFU, SKA2 / Fold change vs veh, SKA2 / RFU, AFF3 / Fold change vs veh, AFF3 / RFU, LMF1 / Fold change vs veh, LMF1 / RFU, IPO11 / Fold change vs veh, IPO11 / RFU, DFFB / Fold change vs veh, DFFB / RFU, FOXP1 / Fold change vs veh, FOXP1 / RFU, CARD8 / Fold change vs veh, CARD8 / RFU, STRN3 / Fold change vs veh, STRN3 / RFU, ADK / Fold change vs veh, ADK / RFU, RASSF2 / Fold change vs veh, RASSF2 / RFU, WIPF1 / Fold change vs veh, WIPF1 / RFU, LARP1B / Fold change vs veh, LARP1B / RFU, RASA1 / Fold change vs veh, RASA1 / RFU, RB1 / Fold change vs veh, RB1 / RFU, PPFIA1 / Fold change vs veh, PPFIA1 / RFU, MAT2A / Fold change vs veh, MAT2A / RFU, CCT5 / Fold change vs veh, CCT5 / RFU, WDR92 / Fold change vs veh, WDR92 / RFU, CUX1 / Fold change vs veh, CUX1 / RFU, TTC7A / Fold change vs veh, TTC7A / RFU, TMEM135 / Fold change vs veh, TMEM135 / RFU, DEPTOR / Fold change vs veh, DEPTOR / RFU, CPM / Fold change vs veh, CPM / RFU, DNAJB6 / Fold change vs veh, DNAJB6 / RFU, CACNA2D3 / Fold change vs veh, CACNA2D3 / RFU, DTX4 / Fold change vs veh, DTX4 / RFU, TFCP2 / Fold change vs veh, TFCP2 / RFU, GMCL1 /// GMCL1P1 / Fold change vs veh, GMCL1 /// GMCL1P1 / RFU, AEBP2 / Fold change vs veh, AEBP2 / RFU, SNHG1 /// SNORD22 /// SNORD25 /// SNORD26 /// SNORD27 /// SNORD28 /// SNORD29 /// SNORD31 / Fold change vs veh, SNHG1 /// SNORD22 /// SNORD25 /// SNORD26 /// SNORD27 /// SNORD28 /// SNORD29 /// SNORD31 / Fold change (Aza/veh), C12orf56 (ProbeSet 11735607_a_at) / Fold change (ACY-1035/veh), C12orf56 (ProbeSet 11735607_a_at) / Fold change (Aza/veh), FGFR1OP (ProbeSet 11751329_s_at) / Fold change (ACY-1035/veh), FGFR1OP (ProbeSet 11751329_s_at) / Fold change (Aza/veh), VPS36 (ProbeSet 11739960_a_at) / Fold change (ACY-1035/veh), VPS36 (ProbeSet 11739960_a_at) / RFU SYPL1 (11715823_x_at) / Fold change /veh SYPL1 (11715823_x_at) / RFU IGFBP7 (11715501_s_at) / Fold change /veh IGFBP7 (11715501_s_at) / RFU REEP3 (11722064_at) / Fold change /veh REEP3 (11722064_at) / RFU IGLL1 (11728026_x_at) / Fold change /veh IGLL1 (11728026_x_at): dose or concentration left out as unconfirmed
Settings: MV-4-11 cells, 48 hours

Nc1ncn([C@@H]2O[C@H](CO)[C@@H](O)[C@H]2O)c(=O)n1 [azacitidine]
Fold change /veh ARHGAP8 /// PRR5-ARHGAP8 (11727945_x_at): 0.99
